Assay results reported in ChEMBL document CHEMBL5260850, “The exploration of aza-quinolines as hematopoietic prostaglandin D synthase (H-PGDS) inhibitors with low brain exposure” (Bioorg Med Chem, 2020).
Converted amounts (≈) assume the structure as drawn.

Experiments:
[1] = Solubility of the compound in FaSSIF at pH 6.5 measured after 4 hrs by HPLC-UV analysis; type: ADME
[2] = Apparent permeability, Papp of the compound at pH 7.4 incubated for 3 hrs by AMP based liquid chromatography; type: ADME; conditions: not told
[3] = Dose normalized AUC in mouse at 3 mg/kg, po; type: ADME, organism-based; set-up: unit not given here; conditions: in vivo
[4] = target: Albumin (Homo sapiens, UniProt P02768); experiment: Protein binding in human serum albumin by HPLC analysis; type: ADME, cell-free; conditions: read-out: PB (converted)
Sequence of Albumin (P02768 whole entry): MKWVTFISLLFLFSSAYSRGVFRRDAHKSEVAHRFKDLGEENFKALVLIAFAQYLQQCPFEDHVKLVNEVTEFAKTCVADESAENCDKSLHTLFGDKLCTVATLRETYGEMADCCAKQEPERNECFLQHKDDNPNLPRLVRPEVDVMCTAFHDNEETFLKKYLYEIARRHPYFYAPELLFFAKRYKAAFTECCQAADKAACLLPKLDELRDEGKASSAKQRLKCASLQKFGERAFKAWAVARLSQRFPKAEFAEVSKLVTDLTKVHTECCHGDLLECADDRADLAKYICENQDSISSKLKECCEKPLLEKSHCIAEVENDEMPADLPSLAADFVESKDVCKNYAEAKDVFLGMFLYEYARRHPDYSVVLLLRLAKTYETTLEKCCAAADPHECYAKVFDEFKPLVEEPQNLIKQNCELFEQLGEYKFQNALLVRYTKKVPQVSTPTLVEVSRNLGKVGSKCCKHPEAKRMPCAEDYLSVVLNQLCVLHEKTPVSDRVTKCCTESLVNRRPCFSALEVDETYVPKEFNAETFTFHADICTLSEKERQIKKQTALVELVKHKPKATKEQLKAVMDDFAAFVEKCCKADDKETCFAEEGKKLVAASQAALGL

[5] = Half life in mouse S9 fraction pretreated for 5 mins followed by incubation with NADP for 30 secs and measured upto 45 mins by LC-MS/MS analysis; type: ADME, subcellular; conditions: time 3030 sec
[6] = target: Hematopoietic prostaglandin D synthase (Homo sapiens, UniProt O60760); experiment: Inhibition of human H-PGDS expressed in Escherichia coli BL21 DE3 cells assessed as reduction in PGD2 production using PGH2 as substrate by RapidFire High Throughput Mass spectrometry
Sequence of Hematopoietic prostaglandin D synthase (Homo sapiens, UniProt O60760) (O60760 whole entry): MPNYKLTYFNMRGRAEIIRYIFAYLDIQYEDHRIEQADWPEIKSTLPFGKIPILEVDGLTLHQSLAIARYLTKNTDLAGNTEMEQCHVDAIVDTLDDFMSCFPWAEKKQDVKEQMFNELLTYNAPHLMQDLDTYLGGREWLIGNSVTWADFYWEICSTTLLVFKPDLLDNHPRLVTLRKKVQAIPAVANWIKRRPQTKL

[7] = target: T1, Hematopoietic prostaglandin D synthase (Rattus norvegicus, UniProt O35543); experiment: Inhibition of H-PGDS in rat RBL cells assessed as reduction in A23187-induced PGD2 production pretreated for 30 mins followed by A23187 addition for 30 mins by RapidFire Mass spectrometry; type: cell-based
T1 sequence (O35543 whole entry): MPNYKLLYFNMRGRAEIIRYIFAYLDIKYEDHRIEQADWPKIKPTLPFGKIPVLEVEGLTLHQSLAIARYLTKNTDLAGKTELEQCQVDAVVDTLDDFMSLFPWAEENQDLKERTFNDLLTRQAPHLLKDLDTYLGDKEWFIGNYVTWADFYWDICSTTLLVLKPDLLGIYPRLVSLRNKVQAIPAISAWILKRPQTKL

[8] = Volume of distribution at steady state in mouse at 1 mg/kg, iv; type: ADME, organism-based; conditions: in vivo, read-out: Vdss
[9] = Terminal half life in mouse at 1 mg/kg, iv; type: ADME, organism-based; conditions: in vivo
[10] = Clearance in mouse at 1 mg/kg, iv; type: ADME, organism-based; conditions: in vivo
[11] = Oral bioavailability in mouse at 3 mg/kg; type: ADME, organism-based; conditions: in vivo
[12] = Ratio of drug level in brain to blood in mouse at 1 mg/kg, iv; type: ADME, organism-based; conditions: read-out: BBR
[13] = Half life in mouse liver microsomes pretreated for 5 mins followed by incubation with NADP for 30 secs and measured upto 45 mins by LC-MS/MS analysis; type: ADME, Microsome; conditions: time 3030 sec
[14] = Dissociation constant, pKa of the compound by UV spectroscopy or potentiometric analysis; type: physicochemical
[15] = Toxicity in chronic eccentric muscle damage C57BL/6N mouse model assessed as adverse effects at <=6 mg/kg, po administered for 60 days; type: organism-based; conditions: in vivo, 1440 h, time 60 day
[16] = Toxicity in chronic eccentric muscle damage C57BL/6N mouse model assessed as seizure-like activity at >=10 mg/kg, po and measured after 4 days; type: organism-based; conditions: in vivo, 96 h, time 4 day

solubility at 4 h [1] [µg/mL]	Papp at 3 h [2] [×10⁻⁶ cm/s]	AUC/dose [3]	fraction unbound [4]	half-life [5] [h]	IC50 [6] [µM]	EC50 [7] [µM]	half-life ([9]; read-out: beta t1/2 (converted)) [h]	half-life [13] [h]	pKa [14]	Structure (SMILES)	Vd [8] [L/kg]	clearance [10] [mL/min/kg]	bioavailability [11] [%]	Kp [12]	beta t1/2 ([9]; iv, 1 mg/kg) [h]	Activity [15]	Activity [16]
270 (≈ 706 µM)	2.5	73.7	0.22	> 3	0.0044	0.014	–	–	–	C[C@H]1CCN1c1ccc2cc(C(=O)N[C@H]3CC[C@H](C(C)(C)O)CC3)cnc2n1	–	–	–	–	–	–	–
13 (≈ 33.6 µM)	–	19.3	0.27	> 3	0.012	0.17	–	–	–	CC(C)(O)[C@H]1CC[C@H](NC(=O)c2cnc3cc(N4CC(F)C4)ncc3c2)CC1	–	–	–	–	–	–	–
11 (≈ 29.9 µM)	7.8	41	0.21	2.68	0.0039	0.024	–	–	–	CC(C)(O)[C@H]1CC[C@H](NC(=O)c2cnc3cc(N4CCC4)ncc3c2)CC1	–	–	–	–	–	–	–
3 (≈ 8.14 µM)	2.3	72.5	0.2	> 3	0.0053	0.075	–	–	–	CC(C)(O)[C@H]1CC[C@H](NC(=O)c2cnc3nc(N4CCC4)ccc3c2)CC1	–	–	–	–	–	–	–
400 (≈ 1280 µM)	< 1	250	0.41	> 3	0.012	0.11	–	–	–	O=C(N[C@H]1CCNC1=O)c1cnc2cc(N3CCC3)ncc2c1	–	–	–	–	–	–	–
27 (≈ 76.4 µM)	16.5	1040	0.16	> 3	0.014	0.094	1.1	–	–	CC(C)(O)[C@H]1CC[C@H](NC(=O)c2cnc3cc(C4CC4)ncc3c2)CC1	1.6	22	130	0.17	–	–	–
460 (≈ 1470 µM)	3.8	46.9	0.48	> 3	0.056	0.45	–	–	–	C[C@]1(O)C[C@@H](NC(=O)c2cnc3cc(N4CCC4)ncc3c2)C1	–	–	–	–	–	–	–
24 (≈ 69.9 µM)	–	64.9	0.27	–	0.03	0.15	–	> 3	2.58	COc1ccc2cc(C(=O)N[C@H]3CC[C@H](C(C)(C)O)CC3)cnc2n1	–	–	–	–	–	–	–
85 (≈ 248 µM)	6.1	104	0.33	–	0.045	0.19	–	> 3	< 2	COc1cc2ncc(C(=O)N[C@H]3CC[C@H](C(C)(C)O)CC3)cc2cn1	–	–	–	–	–	–	–

Structure (SMILES)	solubility at 4 h [1] [µg/mL]	Papp at 3 h [2] [×10⁻⁶ cm/s]	AUC/dose [3]	fraction unbound [4]	half-life [5] [h]	IC50 [6] [µM]	EC50 [7] [µM]	half-life ([9]; read-out: beta t1/2 (converted)) [h]	half-life [13] [h]	pKa [14]	Vd [8] [L/kg]	clearance [10] [mL/min/kg]	bioavailability [11] [%]	Kp [12]	beta t1/2 ([9]; iv, 1 mg/kg) [h]	Activity [15]	Activity [16]
CC(C)(O)[C@H]1CC[C@H](NC(=O)c2cnc3cc(OC(F)F)ccc3c2)CC1	70 (≈ 185 µM)	–	–	0.12	> 3	–	0.16	–	–	2.43	1.7	5.6	61	0.59	3.8	Non-Toxic	Toxic
